Results as given in US10118901B2 (priority 2013, dated 2018).

Tests used:
60 cancer cell lines = assay: NCI-60 DTP human tumor cell line screen at 10 μM, whole panel; type: cell-based; details: for Growth %, Median: 10 μM single dose, median over cell lines; for mean growth percent in the 60 cancer cell lines: single dose of about 10 μM
Protocol: (§1) NL-101 and CY-102 was sent to U.S. National Cancer Institute (NCI) for NCI 60-cell line screening using a single compound dose (10 μM).
The human tumor cell lines of the cancer screening panel were grown in RPMI 1640 medium containing 5% fetal bovine serum (5% FBS) and 2 mM L-glutamine. For a typical screening experiment, cells were inoculated into 96-well microtiter plates in 100 μL, at plating densities ranging from 5,000 to 40,000 cells/well depending on the doubling time of individual cell lines. After cell inoculation, the microtiter plates were incubated at 37° C., 5% CO2, 95% air, and 100% relative humidity for 24 h prior to addition of experimental compounds. After 24 hr, two plates of each cell line were fixed in situ with TCA, to represent a measurement of the cell population for each cell line at the time of drug addition (Tz). Experimental drugs were solubilized in dimethyl sulfoxide at 400-fold the desired final maximum test concentration and stored frozen prior to use. At the time of drug addition, an aliquot of frozen concentrate was thawed and diluted to twice the desired final maximum test concentration with complete medium containing 50 μg/ml gentamicin. Aliquots of 100 μL of these different drug dilutions were added to the appropriate microtiter wells already containing 100 μL of medium, resulting in the required final drug concentrations.
Following drug addition, the plates were incubated for an additional 48 hrs at 37° C., 5% CO2, 95% air, and 100% relative humidity. For adherent cells, the assay was terminated by the addition of cold TCA. Cells were then fixed in situ by the gentle addition of 50 μL of cold 50% (w/v) TCA (final concentration, 10% TCA) and incubated for 60 minutes at 4° C. The supernatant was discarded, and the plates were washed five times with tap water and air dried. Sulforhodamine B (SRB) solution (100 μL) at 0.4% (w/v) in 1% acetic acid was added to each well, and plates were incubated for 10 minutes at room temperature. After staining, unbound dye was removed by washing five times with 1% acetic acid and the plates were air dried. Bound stain was subsequently solubilized with 10 mM trizma base, and the absorbance was read on an automated plate reader at a wavelength of 515 nm. […]
(§2) Using the seven absorbance measurements [time zero, (Tz), control growth, (C), and test growth in the presence of drug at the 10 μM concentration levels (Ti)], percentage growth was calculated at each of the drug concentrations levels. Percentage growth inhibition was calculated as: [(Ti−Tz)/(C−Tz)]×100 for which Ti>/=Tz or [(Ti−Tz)/Tz]×100 for which Ti<Tz.

HL-60(TB) = type: cell-based, human
RPMI-8226 = assay: NCI-60 screen at 10 μM: RPMI-8226; type: cell-based, human; details: Leukemia RPMI-8226; 10 μM single dose; 48 hrs
Protocol: as §1
(§3) The human tumor cell lines of the cancer screening panel were grown in RPMI 1640 medium containing 5% fetal bovine serum (5% FBS) and 2 mM L-glutamine. For a typical screening experiment, cells were inoculated into 96-well microtiter plates in 100 μL, at plating densities ranging from 5,000 to 40,000 cells/well depending on the doubling time of individual cell lines. After cell inoculation, the microtiter plates were incubated at 37° C., 5% CO2, 95% air, and 100% relative humidity for 24 h prior to addition of experimental compounds. […]
(§4) Following drug addition, the plates were incubated for an additional 48 hrs at 37° C., 5% CO2, 95% air, and 100% relative humidity. […] Bound stain was subsequently solubilized with 10 mM trizma base, and the absorbance was read on an automated plate reader at a wavelength of 515 nm. […]
as §2

A549/ATCC = assay: NCI-60 screen at 10 μM: A549/ATCC; type: cell-based, human; details: NSCLC A549/ATCC; 10 μM single dose; 48 hrs
Protocol: as §1, §3, §4, §2

HOP-62 = assay: NCI-60 screen at 10 μM: HOP-62; type: cell-based, human; details: NSCLC HOP-62; 10 μM single dose; 48 hrs
Protocol: as §1, §3, §4, §2

HOP-92 = assay: NCI-60 screen at 10 μM: HOP-92; type: cell-based, human; details: NSCLC HOP-92; 10 μM single dose; 48 hrs
Protocol: as §1, §3, §4, §2

NCI-H23 = assay: NCI-60 screen at 10 μM: NCI-H23; type: cell-based, human; details: NSCLC NCI-H23; 10 μM single dose; 48 hrs
Protocol: as §1, §3, §4, §2

NCI-H460 = assay: NCI-60 screen at 10 μM: NCI-H460; type: cell-based, human; details: NSCLC NCI-H460; 10 μM single dose; 48 hrs
Protocol: as §1, §3, §4, §2

COLO 205 = assay: NCI-60 screen at 10 μM: COLO 205; type: cell-based, human; details: Colon Cancer COLO 205; 10 μM single dose; 48 hrs
Protocol: as §1, §3, §4, §2

HT29 = assay: NCI-60 screen at 10 μM: HT29; type: cell-based, human; details: Colon Cancer HT29; 10 μM single dose; 48 hrs
Protocol: as §1, §3, §4, §2

KM12 = assay: NCI-60 screen at 10 μM: KM12; type: cell-based, human; details: Colon Cancer KM12; 10 μM single dose; 48 hrs
Protocol: as §1, §3, §4, §2

SW-620 = assay: NCI-60 screen at 10 μM: SW-620; type: cell-based, human; details: Colon Cancer SW-620; 10 μM single dose; 48 hrs
Protocol: as §1, §3, §4, §2

SF-268 = assay: NCI-60 screen at 10 μM: SF-268; type: cell-based, human; details: CNS Cancer (Glioma) SF-268; 10 μM single dose; 48 hrs
Protocol: as §1, §3, §4, §2

SF-295 = assay: NCI-60 screen at 10 μM: SF-295; type: cell-based, human; details: CNS Cancer (Glioma) SF-295; 10 μM single dose; 48 hrs
Protocol: as §1, §3, §4, §2

U251 = assay: NCI-60 screen at 10 μM: U251; type: cell-based, human; details: CNS Cancer (Glioma) U251; 10 μM single dose; 48 hrs
Protocol: as §1, §3, §4, §2

SK-MEL-28 = assay: NCI-60 screen at 10 μM: SK-MEL-28; type: cell-based, human; details: Melanoma SK-MEL-28; 10 μM single dose; 48 hrs
Protocol: as §1, §3, §4, §2

UACC-257 = assay: NCI-60 screen at 10 μM: UACC-257; type: cell-based, human; details: Melanoma UACC-257; 10 μM single dose; 48 hrs
Protocol: as §1, §3, §4, §2

UACC-62 = assay: NCI-60 screen at 10 μM: UACC-62; type: cell-based, human; details: Melanoma UACC-62; 10 μM single dose; 48 hrs
Protocol: as §1, §3, §4, §2

OVCAR-4 = assay: NCI-60 screen at 10 μM: OVCAR-4; type: cell-based, human; details: Ovarian Cancer OVCAR-4; 10 μM single dose; 48 hrs
Protocol: as §1, §3, §4, §2

OVCAR-8 = assay: NCI-60 screen at 10 μM: OVCAR-8; type: cell-based, human; details: Ovarian Cancer OVCAR-8; 10 μM single dose; 48 hrs
Protocol: as §1, §3, §4, §2

786-0 = assay: NCI-60 screen at 10 μM: 786-0; type: cell-based, human; details: Renal Cancer 786-0; 10 μM single dose; 48 hrs
Protocol: as §1, §3, §4, §2

A498 = assay: NCI-60 screen at 10 μM: A498; type: cell-based, human; details: Renal Cancer A498; 10 μM single dose; 48 hrs
Protocol: as §1, §3, §4, §2

PC-3 = assay: NCI-60 screen at 10 μM: PC-3; type: cell-based, human; details: Prostate Cancer PC-3; 10 μM single dose; 48 hrs
Protocol: as §1, §3, §4, §2

MDA-MB-468 = assay: NCI-60 screen at 10 μM: MDA-MB-468; type: cell-based, human; details: Breast Cancer MDA-MB-468; 10 μM single dose; 48 hrs
Protocol: as §1, §3, §4, §2

Row | Structure (SMILES) | Growth %, Median (60 cancer cell lines) [%] | mean growth percent in the 60 cancer cell lines (60 cancer cell lines) [%] | Growth % (HL-60(TB)) [%] | Growth % (RPMI-8226) [%] | Growth % (A549/ATCC) [%] | Growth % (HOP-62) [%] | Growth % (HOP-92) [%] | Growth % (NCI-H23) [%] | Growth % (NCI-H460) [%] | Growth % (COLO 205) [%] | Growth % (HT29) [%] | Growth % (KM12) [%] | Growth % (SW-620) [%] | Growth % (SF-268) [%] | Growth % (SF-295) [%] | Growth % (U251) [%] | Growth % (SK-MEL-28) [%] | Growth % (UACC-257) [%] | Growth % (UACC-62) [%] | Growth % (OVCAR-4) [%] | further results
1 | Cn1c(CCCCCCC(=O)NO)nc2cc(N(CCCl)CCCl)ccc21 [NL-101] | 36.35 | 36 | 18.98 | 49.23 | 43.54 | 13.56 | 22.07 | 30.14 | 25.56 | 54.36 | 37.10 | 65.79 | 30.40 | 10.27 | 43.95 | 35.03 | 59.32 | 33.75 | 12.99 | 68.52 | Growth % (OVCAR-8): 32.65%; Growth % (786-0): 19.82%; Growth % (A498): 49.70%; Growth % (PC-3): 51.40%; Growth % (MDA-MB-468): −34.68%
2 | Cn1c(CCNCc2ccc(/C=C/C(=O)NO)cc2)nc2cc(N(CCCl)CCCl)ccc21 [CY-102] | −28.5 | −28 | −10.34 | 2.28 | −32.69 | −30.02 | −35.89 | −6.76 | 2.61 | −81.34 | −50.67 | −78.14 | 2.33 | −31.46 | −53.87 | −39.66 | −21.36 | −36.39 | −69.24 | −19.00 | Growth % (OVCAR-8): −26.88%; Growth % (786-0): −30.40%; Growth % (A498): −81.56%; Growth % (PC-3): −1.86%; Growth % (MDA-MB-468): −21.52%
